Common to all, as to type: in vivo
Assay [1] has as its system Echinochloa crus-galli (ECHCG). Description: Post-emergence biological efficacy, glasshouse pot test. The settings on record: 312 h, post-emergence, 1,000 g/ha, evaluated after 13 days (100=total damage; 0=no damage), read-out: Percentage damage caused to weed species, ECHCG. The gist of the method: (§1)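 Scored 13 days after spraying on a 0 (no damage) to 100 (total damage) scale. Treatment was a post-emergence spray at 1000 or 250 g/ha, from acetone/water 50:50 plus 0.5% Tween 20, onto 8-day-old plants in soil pots. Growth at 24/16° C, 14 h photoperiod, 65% humidity, watered twice daily.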

For assay [2], the system named is Amaranthus retoflexus (AMARE). Described as above. Particulars: Amaranthus retroflexus, 312 h; post-emergence, 1,000 g/ha, evaluated after 13 days (100=total damage; 0=no damage); read-out: Percentage damage caused to weed species, AMARE. The gist of the method: as §1
Assay [3] has as its system Solanum nigrum (SOLNI). The assay is described as above. Particulars: 312 h, post-emergence, 1,000 g/ha, evaluated after 13 days (100=total damage; 0=no damage), read-out: Percentage damage caused to weed species, SOLNI. In outline:
as §1

Assay [4] has as its system Alopecurus myosuroides (ALOMY). Described as above. Particulars: 312 h, post-emergence, 1,000 g/ha, evaluated after 13 days (100=total damage; 0=no damage), read-out: Percentage damage caused to weed species, ALOMY. In outline:
as §1

In assay [5] the test system is Setaria faberi (SETFA). The description is as above. Particulars: 312 h, post-emergence, 1,000 g/ha, evaluated after 13 days (100=total damage; 0=no damage), read-out: Percentage damage caused to weed species, SETFA. The gist of the method:
as §1

Assay [6] deals with Ipomea hederaceae (IPOHE). The description is as above. Particulars: Ipomoea hederacea, 312 h; post-emergence, 1,000 g/ha, evaluated after 13 days (100=total damage; 0=no damage); read-out: Percentage damage caused to weed species, IPOHE. In outline:
as §1

Assay [7] relates to Echinochloa crus-galli (ECHCG). Description: Pre-emergence biological efficacy, glasshouse pot test. The settings on record: 312 h, pre-emergence, 1,000 g/ha, evaluated after 13 days (100=total damage; 0=no damage), read-out: Percentage damage ECHCG. In outline:
(§2)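 Sow seeds in pots of standard soil; after one day in the glasshouse, spray test compound (1000 or 250 g/ha) in aqueous acetone/water with 0.5% Tween 20. Grow 13 days at 24/16 °C day/night, then score damage from 0 to 100.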

For assay [8], the system named is Amaranthus retoflexus (AMARE). The assay is described as above. The settings on record: Amaranthus retroflexus, 312 h; pre-emergence, 1,000 g/ha, evaluated after 13 days (100=total damage; 0=no damage); read-out: Percentage damage AMARE. The gist of the method: as §2
The subject of assay [9] is Solanum nigrum (SOLNI). Described as above. The settings on record: 312 h, pre-emergence, 1,000 g/ha, evaluated after 13 days (100=total damage; 0=no damage), read-out: Percentage damage SOLNI. In outline: as §2
The test system of assay [10] is Alopecurus myosuroides (ALOMY). The assay is described as above. The settings on record: 312 h, pre-emergence, 1,000 g/ha, evaluated after 13 days (100=total damage; 0=no damage), read-out: Percentage damage ALOMY. The gist of the method:
as §2

Assay [11] relates to Setaria faberi (SETFA). The description is as above. Particulars: 312 h, pre-emergence, 1,000 g/ha, evaluated after 13 days (100=total damage; 0=no damage), read-out: Percentage damage SETFA. The gist of the method: as §2
The subject of assay [12] is Ipomea hederaceae (IPOHE). The description is as above. The settings on record: Ipomoea hederacea, 312 h; pre-emergence, 1,000 g/ha, evaluated after 13 days (100=total damage; 0=no damage); read-out: Percentage damage IPOHE. In outline:
as §2

Regarding `COC(=O)c1nc(C2CC2)nc(NCc2ccc(Cl)cc2Cl)c1Cl` [Compound 4-103, 5-Chloro-2-cyclopropyl-4-(2,4-dichlorophenyl-methylamino)-6-methoxycarbonyl-pyrimidine], the pest or weed control at 1000 g/ha in assay [1] stood at 60%; in assay [2] it was 100%; with Solanum nigrum (SOLNI) [3] it was 80%; in assay [4] it was 20%; with Setaria faberi (SETFA) [5], 70%; in assay [6], 90%. Besides, the pest or weed control at 1000 g/ha stood at 0% in [7]; 40% in assay [8]; 10% with Solanum nigrum (SOLNI) [9]; 10% in [10]; 0% in the assay on Setaria faberi (SETFA) [11]; 30% in assay [12].

With `COC(=O)c1nc(C2CC2)nc(NCc2c(Cl)cccc2Cl)c1Cl` [Compound 4-104, 5-Chloro-2-cyclopropyl-4-(2,6-dichlorophenyl-methylamino)-6-methoxycarbonyl-pyrimidine], the pest or weed control at 1000 g/ha in assay [1] is 90%; in [2] it was 100%; in the assay on Solanum nigrum (SOLNI) [3], 90%; in assay [4], 20%; in the assay on Setaria faberi (SETFA) [5] it was 90%; in assay [6] it was 100%. In addition, the pest or weed control at 1000 g/ha came to 20% in assay [7]; 40% in [8]; 30% with Solanum nigrum (SOLNI) [9]; 10% in assay [10]; 0% with Setaria faberi (SETFA) [11]; 20% in assay [12].

For `COC(=O)c1nc(C2CC2)nc(NCc2cc(C(F)(F)F)cc(C(F)(F)F)c2)c1Cl` [Compound 4-108, 4-(3,5-Bis-trifluoro-methylphenyl-methylamino)-5-chloro-2-cyclo-propyl-6-methoxy-carbonylpyrimidine], the pest or weed control at 1000 g/ha in assay [1] stood at 10%; in [2], 50%; with Solanum nigrum (SOLNI) [3], 90%; in assay [4], 10%; in the assay with Setaria faberi (SETFA) [5], 20%; in [6], 70%. Besides, the pest or weed control at 1000 g/ha in assay [7] is 0%; in assay [8], 40%; in the assay on Solanum nigrum (SOLNI) [9], 0%; in assay [10], 0%; in the assay with Setaria faberi (SETFA) [11], 10%; in [12] it was 40%.

As to `COC(=O)c1nc(C2CC2)nc(NCc2cccc(OC)c2OC)c1Cl` [Compound 4-109, 5-Chloro-2-cyclopropyl-4-(2,3-dimethoxyphenyl-methylamino)-6-methoxycarbonyl-pyrimidine], the pest or weed control at 1000 g/ha came to 60% in assay [1]; 100% in assay [2]; 90% in the assay on Solanum nigrum (SOLNI) [3]; 20% in [4]; 80% with Setaria faberi (SETFA) [5]; 100% in assay [6]. The pest or weed control at 1000 g/ha in [7] was 30%; in [8], 70%; in the assay on Solanum nigrum (SOLNI) [9], 50%; in assay [10] it was 20%; in the assay on Setaria faberi (SETFA) [11], 30%; in assay [12], 80%.

Regarding `COC(=O)c1nc(C2CC2)nc(NCc2ccc(OC)cc2OC)c1Cl` [Compound 4-110, 5-Chloro-2-cyclopropyl-4-(2,4-dimethoxyphenyl-methylamino)-6-methoxycarbonyl-pyrimidine], the pest or weed control at 1000 g/ha was 80% in assay [1]; 100% in [2]; 80% in the assay with Solanum nigrum (SOLNI) [3]; 70% in [4]; 80% in the assay with Setaria faberi (SETFA) [5]; 100% in assay [6]. The pest or weed control at 1000 g/ha in assay [7] amounted to 80%; in [8] it was 100%; in the assay on Solanum nigrum (SOLNI) [9] it was 90%; in assay [10] it was 40%; with Setaria faberi (SETFA) [11] it was 40%; in [12] it was 100%.

Consider `COC(=O)c1nc(C2CC2)nc(NCc2c(OC)cccc2OC)c1Cl` [Compound 4-111, 5-Chloro-2-cyclopropyl-4-(2,6-dimethoxyphenyl-methylamino)-6-methoxycarbonyl-pyrimidine], for which the pest or weed control at 1000 g/ha in assay [1] came to 60%; in assay [2], 100%; in the assay with Solanum nigrum (SOLNI) [3] it was 100%; in assay [4], 30%; in the assay on Setaria faberi (SETFA) [5], 80%; in [6], 100%. Moreover, the pest or weed control at 1000 g/ha in assay [7] amounted to 50%; in assay [8] it was 90%; in the assay on Solanum nigrum (SOLNI) [9], 60%; in assay [10] it was 20%; with Setaria faberi (SETFA) [11] it was 40%; in [12], 80%.

Turning to `COC(=O)c1nc(C2CC2)nc(NCc2ccc(OC)c(OC)c2)c1Cl` [Compound 4-112, 5-Chloro-2-cyclopropyl-4-(3,4-dimethoxyphenyl-methylamino)-6-methoxycarbonyl-pyrimidine], the pest or weed control at 1000 g/ha was found to be 90% in [1]; 100% in assay [2]; 100% in the assay on Solanum nigrum (SOLNI) [3]; 40% in [4]; 90% in the assay on Setaria faberi (SETFA) [5]; 100% in [6]. Also, the pest or weed control at 1000 g/ha in [7] is 40%; in assay [8], 70%; in the assay on Solanum nigrum (SOLNI) [9] it was 90%; in assay [10], 50%; with Setaria faberi (SETFA) [11] it was 80%; in [12] it was 90%.

Turning to `COC(=O)c1nc(C2CC2)nc(NCc2ccc3c(c2)OCO3)c1Cl` [Compound 4-115, 4-(Benzo[1,3]-dioxol-5-ylmethyl-amino)-5-chloro-2-cyclopropyl-6-methoxycarbonyl-pyrimidine], the pest or weed control at 1000 g/ha worked out at 80% in assay [1]; 100% in assay [2]; 100% in the assay on Solanum nigrum (SOLNI) [3]; 60% in [4]; 90% in the assay with Setaria faberi (SETFA) [5]; 100% in [6]. The pest or weed control at 1000 g/ha was 60% in assay [7]; 100% in assay [8]; 90% with Solanum nigrum (SOLNI) [9]; 30% in assay [10]; 60% in the assay on Setaria faberi (SETFA) [11]; 90% in [12].
